Results taken from publication PMC3804772, “Rational Design, Synthesis, and Biological Evaluation of Third Generation α-Noscapine Analogues as Potent Tubulin Binding Anti-Cancer Agents” (PLoS ONE, 2013).

Experiments:
[1] = test system: human lung adenocarcinoma epithelial cell line (A549); experiment: In vitro cell proliferation assay (SRB), A549; assay type: cell-based; conditions: 72 h, mean ± S.D.
Experimental: (§1) The cell proliferation assay was performed in 96-well plates as described previously. A panel of four cancer cell lines of different tissues of origins, namely: human lung adenocarcinoma epithelial cell line (A549), human lymphoblast cell line (CEM), human cervix cell line (HeLa) and human breast epithelial cell line (MCF-7) were studied. These cell lines were obtained from the National Repository of Animal Cell Culture, National Centre for Cell Sciences, Pune (NCCS), India. Briefly, 2 x10^3 cells were seeded in each well and were incubated with gradient concentrations of 5a, 6a-j compounds for 72 h. The cells were then fixed with 50% trichloroacetic acid and stained with 0.4% sulforhodamine B (SRB) dissolved in 1% acetic acid. Cells were then washed with1% acetic acid to remove excess (unbound) SRB. The protein-bound SRB was dissolved with 10 mM Tris base and the absorbance at 564 nm was determined using a SPECTRAmax PLUS 384 microplate spectrophotometer.

[2] = test system: human lymphoblast cell line (CEM); experiment: In vitro cell proliferation assay (SRB), CEM; assay type: cell-based; conditions: 72 h, mean ± S.D.
Experimental: as §1

MCF-7 cells = experiment: Cell cycle analysis by flow cytometry (propidium iodide); assay type: cell-based, human; conditions: MCF-7, 25 µM
Experimental: The flow cytometric evaluation of the cell cycle status was performed as described previously. Briefly, cells (2 x 10^6) treated with the noscapinoids up to 72 h were centrifuged, washed twice with cold PBS, and fixed in 70% ethanol. Tubes containing the cell pellets were stored at 4 °C for minimum of 24 h. Cells were then centrifuged at 1000 x g for 10 min and the supernatant was discarded. The pellets were washed twice with 5 ml of PBS and then stained with 0.5 ml of propidium iodide (0.1% of Pl + 0.6% Triton-X in PBS) and 0.5 ml of RNase A (2 mg/ml) for 45 minutes in dark. Samples were then analyzed on a FACS Calibur flow cytometer ([…]).

[3] = test system: human breast epithelial cell line (MCF-7); experiment: In vitro cell proliferation assay (SRB), MCF-7; assay type: cell-based; conditions: MCF7, 72 h, mean ± S.D.
Experimental: as §1

[4] = test system: human cervix cell line (HeLa); experiment: In vitro cell proliferation assay (SRB), HeLa; assay type: cell-based; conditions: 72 h, mean ± S.D.
Experimental: as §1

tubulin = target: T1, tubulin (Bos taurus, UniProt P81947+Q6B856); experiment: Tubulin binding assay (quenching of intrinsic tryptophan fluorescence); set-up: species or system bovine
T1 construct: Tubulin devoid of microtubule-associated proteins (MAPs) was purified from bovine brain; from tissue; host or cells: bovine brain
T1 sequence (Q6B856 whole entry): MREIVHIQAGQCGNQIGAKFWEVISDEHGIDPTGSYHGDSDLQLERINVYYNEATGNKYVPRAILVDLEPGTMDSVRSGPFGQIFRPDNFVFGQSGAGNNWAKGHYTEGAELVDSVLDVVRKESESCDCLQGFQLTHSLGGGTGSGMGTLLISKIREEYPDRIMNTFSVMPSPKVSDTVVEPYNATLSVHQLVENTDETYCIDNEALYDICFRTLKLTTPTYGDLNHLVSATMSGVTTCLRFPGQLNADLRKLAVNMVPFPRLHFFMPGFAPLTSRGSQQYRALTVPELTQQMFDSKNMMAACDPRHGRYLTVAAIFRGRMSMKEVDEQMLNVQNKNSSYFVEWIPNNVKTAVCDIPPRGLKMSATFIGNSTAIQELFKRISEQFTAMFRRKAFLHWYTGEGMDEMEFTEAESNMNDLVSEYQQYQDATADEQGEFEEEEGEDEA
T1 sequence (P81947 whole entry): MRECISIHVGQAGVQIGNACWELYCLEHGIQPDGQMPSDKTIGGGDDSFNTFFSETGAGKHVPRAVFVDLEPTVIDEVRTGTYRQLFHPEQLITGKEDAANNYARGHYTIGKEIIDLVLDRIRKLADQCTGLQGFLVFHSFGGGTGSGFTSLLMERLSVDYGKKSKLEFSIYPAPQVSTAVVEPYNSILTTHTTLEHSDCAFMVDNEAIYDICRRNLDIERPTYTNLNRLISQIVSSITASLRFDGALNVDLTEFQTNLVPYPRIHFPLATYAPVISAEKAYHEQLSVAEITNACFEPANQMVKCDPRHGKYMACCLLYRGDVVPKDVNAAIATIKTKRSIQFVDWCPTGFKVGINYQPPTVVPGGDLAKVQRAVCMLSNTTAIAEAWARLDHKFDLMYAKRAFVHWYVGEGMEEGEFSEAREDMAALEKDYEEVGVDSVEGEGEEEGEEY
Experimental: Tubulin devoid of microtubule-associated proteins (MAPs) was purified from bovine brain by cycles of temperature-dependent polymerization and depolymerization as described previously followed by phosphocellulose chromatography. The concentration of the tubulin was determined by the method of Bradford using BSA as the standard. Purified tubulin was quickly frozen as drops in liquid nitrogen and stored at - 80 °C until used.
Noscapinoids quench the […] intrinsic tryptophan fluorescence of tubulin in a concentration-dependent fashion as described previously. This has allowed an easy method for measuring the tubulin-noscapinoids interactions. Briefly, the compounds 5a, 6a-j (0-200 µM) were incubated with 2 µM tubulin in PEM buffer (100 mM PIPES, pH 6.8, 3 mM MgSO4, and 1 mM EGTA) at 37 °C for 45 min. After incubation, the samples were excited at 295 nm. The relative intrinsic fluorescence intensity of the tubulin was then monitored in the absence and presence of the compound 5a, 6a-j using a Varian Cary Eclipse Fluorescence Spectrophotometer (Agilent Technologies, CA, USA). The emission readings were recorded at 335 nm. We used a 0.3 cm path-length cuvette to minimize the inner filter effects caused by the absorbance of the noscapinoids. In addition, the inner filter effects were corrected using a formula F corrected = F observed·antilog [(A ex + A em)/2], where A ex is the absorbance at the excitation wavelength and A em is the absorbance at the emission wavelength. The equilibrium dissociation constant (KD) was determined by the formula: 1/a = KD/[free ligand] + 1, where a is the fractional occupancy and [free ligand] is the concentration of free ligand. The fractional occupancy (a) was determined by the formula a = ΔF/ΔF max, where ΔF is the change in fluorescence intensity when tubulin and its ligand are in equilibrium and ΔF max is the value of maximum fluorescence change when tubulin is completely bound with its ligand. ΔF max was calculated by plotting 1/ΔF versus 1/ligand, using total ligand concentration as the first estimate of free ligand concentration. Three independent experiments were performed for each noscapinoid.

Row | SMILES | IC50 [1] [µM] | melting point [°C] | IC50 [2] [µM] | Cell cycle parameters % G0/G1, 24 hours (MCF-7 cells) [%] | Cell cycle parameters % G2/M, 24 hours (MCF-7 cells) [%] | Cell cycle parameters % S, 24 hours (MCF-7 cells) [%] | Cell cycle parameters % Sub-G1, 24 hours (MCF-7 cells) [%] | Cell cycle parameters % G0/G1, 72 hours (MCF-7 cells) [%] | Cell cycle parameters % G2/M, 72 hours (MCF-7 cells) [%] | Cell cycle parameters % S, 72 hours (MCF-7 cells) [%] | Cell cycle parameters % Sub-G1, 72 hours (MCF-7 cells) [%] | IC50 [3] [µM] | IC50 [4] [µM] | Kd (tubulin; 2 µM tubulin, PEM buffer pH 6.8, 37 °C, 45 min, mean ± S.D.) [µM] | Experimental ΔGbind (tubulin; calculated from KD, ΔGbind = RT ln KD, T = 298 K) [kcal/mol]
1 | COc1ccc2c(c1OC)C(=O)O[C@@H]2[C@H]1c2c(cc3c(c2OC)OCO3)CCN1Cc1ccc(Br)cc1 [Compound 6b, 5(S)-3-((R)-6-(4-bromobenzyl)-4-methoxy-5,6,7,8-tetrahydro-[1,3]dioxolo[4,5-g]isoquinolin-5-yl)-6,7-dimethoxyisobenzofuran-1(3H)-one] | 42.4 ± 2.3 | 76 | 9 ± 0.4 | 19.42 | 64.42 | 4.16 | 7.37 | 11.38 | 35.84 | 7.53 | 43.18 | 34.1 ± 1.6 | 21.2 ± 2.1 |  | 
2 | COc1ccc2c(c1OC)C(=O)O[C@@H]2[C@H]1c2c(cc3c(c2OC)OCO3)CCN1CC(C)=O [Compound 6h, (S)-6,7-dimethoxy-3-((R)-4-methoxy-6-(2-oxopropyl)-5,6,7,8-tetrahydro-[1,3]dioxolo[4,5-g]isoquinolin-5-yl) isobenzofuran-1(3H)-one] | 28 ± 1.5 | 179 | 6.9 ± 0.5 | 12.25 | 68.58 | 5.92 | 11.37 | 7.19 | 36.18 | 6.28 | 48.73 | 25.3 ± 1.2 | 15.8 ± 0.5 |  | 
3 | COc1ccc2c(c1OC)C(=O)O[C@@H]2[C@H]1c2c(cc3c(c2OC)OCO3)CCN1Cc1cccc(Cl)c1 [Compound 6e, (S)-3-((R)-6-(3-chlorobenzyl)-4-methoxy-5,6,7,8-tetrahydro-[1,3]dioxolo[4,5-g]isoquinolin-5-yl)-6,7-dimethoxyisobenzofuran-1(3H)-one] | 32.1 ± 1.6 | 62 | 7.5 ± 0.6 | 12.84 | 68.42 | 4.57 | 8.17 | 7.02 | 38.52 | 6.83 | 45.42 | 27.8 ± 1.3 | 17.3 ± 0.7 |  | 
4 | COc1ccc(CN2CCc3cc4c(c(OC)c3[C@@H]2[C@H]2OC(=O)c3c2ccc(OC)c3OC)OCO4)cc1 [Compound 6d, (S)-6,7-dimethoxy-3-((R)-4-methoxy-6-(4-methoxybenzyl)-5,6,7,8-tetrahydro[1,3]dioxolo[4,5-g]isoquinolin-5-yl)isobenzofuran-1(3H)-one] | 33.5 ± 1.7 | 66 | 7.7 ± 0.3 | 22.73 | 59.41 | 4.62 | 7.27 | 8.29 | 36.18 | 7.83 | 45.38 | 28.7 ± 0.8 | 17.9 ± 0.9 |  | 
5 | COc1ccc2c(c1OC)C(=O)O[C@@H]2[C@H]1c2c(cc3c(c2OC)OCO3)CCN1Cc1ccccc1 [Compound 6a, (S)-3-((R)-6-benzyl-4-methoxy-5,6,7,8-tetrahydro-[1,3]dioxolo[4,5-g]isoquinolin-5-yl)-6,7-dimethoxyisobenzofuran-1(3H)-one] | 37.7 ± 1.8 | 64 | 8.3 ± 0.4 | 16.28 | 63.18 | 4.94 | 8.12 | 9.06 | 37.72 | 7.39 | 44.82 | 31.2 ± 1.5 | 19.4 ± 1.4 |  | 
6 | COc1cccc(CN2CCc3cc4c(c(OC)c3[C@@H]2[C@H]2OC(=O)c3c2ccc(OC)c3OC)OCO4)c1 [Compound 6g, (S)-6,7-dimethoxy-3-((R)-4-methoxy-6-(3-methoxybenzyl)-5,6,7,8-tetrahydro-[1,3]dioxolo[4,5-g]isoquinolin-5-yl) isobenzofuran-1(3H)-one] | 61.3 ± 3.1 | 60 | 11.9 ± 0.8 | 20.94 | 62.28 | 4.08 | 10.86 | 12.76 | 37.93 | 8.07 | 40.29 | 45.8 ± 2.2 | 28.3 ± 2.1 |  | 
7 | COc1ccc2c(c1OC)C(=O)O[C@@H]2[C@@H]1NCCc2cc3c(c(OC)c21)OCO3 [Compound 5a, (S)-6,7-dimethoxy-3-((R)-4-methoxy-5,6,7,8-tetrahydro[1,3]dioxolo[4,5-g]isoquinolin-5-yl)isobenzofuran-1(3H)-one] | 41.6 ± 2.1 |  | 8.9 ± 0.6 | 13.47 | 66.37 | 4.08 | 8.46 | 10.74 | 39.25 | 7.08 | 41.57 | 33.6 ± 1.3 | 20.9 ± 1.8 | 68 ± 0.7 | -5.691
